According to ChEMBL document CHEMBL1151996, “Structure-activity relationships of anti-HIV-1 N-alkoxy- and N-allyloxy-benzimidazoles” (Bioorg Med Chem Lett, 1997):

How the values were obtained:
C8166 [1] = experiment: Tested against HIV-1 […] for Inhibition of viral replication by determining reduction of syncytia formation and antigen gp120 in C8166 cells, estimated by ELISA; format: functional, cell-based; conditions: Homo sapiens
C8166 [2] = experiment: Compound was evaluated for its cytotoxicity against C8166 cell line; format: functional; conditions: Homo sapiens, read-out: TC50 (the source's name)

EC50 (C8166 [1]) [µM] | Structure (SMILES) | CC50 (C8166 [2]) [µM]
0.5 | CCCCOn1c(CCC)nc2c(C)cccc21 | 
10 | CC(C)=CCOn1c(C=C(C)C)nc2c(C)cccc21 | 50
8 | CCOn1c(C)nc2c(C)cccc21 | 
8 | CCCCCOn1c(CCCC)nc2c(C)cccc21 | 
40 | CCCCCCCOn1c(CCCCCC)nc2c(C)cccc21 | 
16 | COc1ccc2nc(C=C(C)C)n(OCC=C(C)C)c2c1 | 80
 | CC(C)=CCN1Cc2cc(Cl)cc3[nH]c(=S)n(c23)C[C@@H]1C | 62
10 | CC(C)=CCOn1c(C=C(C)C)nc2ccc(C)cc21 | 50
16 | C=CCOn1c(C=C)nc2ccc(C)cc21 | 20
16 | C=CCOn1c(C=C)nc2c(C)cccc21 | 16
80 | C=CCOn1c(C=C)nc2ccc(OC)cc21 | 80
 | Cc1cn([C@H]2C[C@H](N=[N+]=[N-])[C@@H](CO)O2)c(=O)[nH]c1=O [ZIDOVUDINE] | > 1000
